# Test results taken from PubChem BioAssay (NCI).
#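 Assay format: 96-well plates, 48-hour exposure. Definition used: TGI = concentration required for complete inhibition of growth.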
# Assays:
# Assay in all cases: NCI anticancer screen, dose series, 48 h
# [1] = system: MDA-N
# [2] = system: NCI-H522 lung
# [3] = system: MDA-MB-231 breast
# [4] = system: A549 NSCLC
# [5] = system: DU-145 prostate
# [6] = system: MDA-MB-435
# [7] = system: OVCAR-4 ovarian
# [8] = system: HCT-15 colon
# [9] = system: K-562 leukemia
# [10] = system: HCT-116 colon
# [11] = system: BT-549 breast
# [12] = system: PC-3 prostate
# [13] = system: HOP-92 NSCLC
# [14] = system: KM12 colon
# [15] = system: HL-60(TB) leukemia
# [16] = system: A498 renal
# [17] = system: SK-MEL-2 melanoma
# [18] = system: SW-620 colon
# [19] = system: U251 CNS
# [20] = system: MOLT-4 leukemia
# [21] = system: SNB-75 CNS
# [22] = system: UACC-257 melanoma
# [23] = system: LOX IMVI melanoma
# [24] = system: SF-539 CNS
# [25] = system: RXF 393 renal
# [26] = system: OVCAR-8 ovarian
# [27] = system: SF-295 CNS
# [28] = system: EKVX NSCLC
# [29] = system: RPMI-8226 leukemia
# [30] = system: TK-10 renal
# [31] = system: NCI-H226 lung
# [32] = system: HOP-62 NSCLC
# [33] = system: SF-268 CNS
# [34] = system: CAKI-1 renal
# [35] = system: IGROV1 ovarian
# [36] = system: OVCAR-5 ovarian
# [37] = system: HCC-2998 colon
# [38] = system: CCRF-CEM leukemia
# [39] = system: ACHN renal
# [40] = system: SR leukemia
# [41] = system: SN12C renal
# [42] = system: SNB-19 CNS
# [43] = system: MCF7 breast
# [44] = system: 786-0 renal
# [45] = system: OVCAR-3 ovarian
# [46] = system: COLO 205 colon
# [47] = system: M14 melanoma
# [48] = system: NCI-H460 lung
# [49] = system: HT29 colon
# [50] = system: SK-MEL-28 melanoma
# [51] = system: NCI-H23 lung
# [52] = system: HS 578T breast
# [53] = system: SK-MEL-5 melanoma
# [54] = system: NCI/ADR-RES ovarian
# [55] = system: MALME-3M melanoma
# [56] = system: SK-OV-3 ovarian
# [57] = system: T-47D breast
# [58] = system: UACC-62 melanoma
# [59] = system: UO-31 renal
smiles,measurement,setting,value
COCCNC1CCC2(SCCS2)c2[nH]c3ccccc3c21 (centres undefined),TGI,[1],57.9 µM
same,TGI,[2],> 100 µM
same,TGI,[3],54.1 µM
same,TGI,[4],> 100 µM
same,TGI,[5],> 100 µM
same,TGI,[6],62.1 µM
same,TGI,[7],> 100 µM
same,TGI,[8],> 100 µM
same,TGI,[9],> 100 µM
same,TGI,[10],> 100 µM
same,TGI,[11],38 µM
same,TGI,[12],> 100 µM
same,TGI,[13],50.3 µM
same,TGI,[14],40.5 µM
same,TGI,[15],45.8 µM
same,TGI,[16],86.1 µM
same,TGI,[17],> 100 µM
same,TGI,[18],> 100 µM
same,TGI,[19],> 100 µM
same,TGI,[20],> 100 µM
same,TGI,[21],> 100 µM
same,TGI,[22],39.5 µM
same,TGI,[23],36 µM
same,TGI,[24],50.7 µM
same,TGI,[25],40.4 µM
same,TGI,[26],> 100 µM
same,TGI,[27],> 100 µM
same,TGI,[28],> 100 µM
same,TGI,[29],41.4 µM
same,TGI,[30],44.6 µM
same,TGI,[31],> 100 µM
same,TGI,[32],> 100 µM
same,TGI,[33],> 100 µM
same,TGI,[34],> 100 µM
same,TGI,[35],> 100 µM
same,TGI,[36],> 100 µM
same,TGI,[37],> 100 µM
same,TGI,[38],88.3 µM
same,TGI,[39],> 100 µM
same,TGI,[40],69.9 µM
same,TGI,[41],91.9 µM
same,TGI,[42],> 100 µM
same,TGI,[43],39.3 µM
same,TGI,[44],> 100 µM
same,TGI,[45],82.1 µM
same,TGI,[46],82.5 µM
same,TGI,[47],30.4 µM
same,TGI,[48],> 100 µM
same,TGI,[49],> 100 µM
same,TGI,[50],> 100 µM
same,TGI,[51],> 100 µM
same,TGI,[52],> 100 µM
same,TGI,[53],57.4 µM
same,TGI,[54],> 100 µM
COc1ccc2c(c1)-c1[nH]c3ccccc3c1CC2,TGI,[1],31.6 µM
same,TGI,[2],20.3 µM
same,TGI,[3],33.8 µM
same,TGI,[4],30.4 µM
same,TGI,[5],33.5 µM
same,TGI,[6],31.7 µM
same,TGI,[7],32.4 µM
same,TGI,[8],29.6 µM
same,TGI,[55],25.6 µM
same,TGI,[9],> 100 µM
same,TGI,[10],31.8 µM
same,TGI,[11],31.3 µM
same,TGI,[12],29.6 µM
same,TGI,[13],31.8 µM
same,TGI,[14],26.8 µM
same,TGI,[56],33.6 µM
same,TGI,[17],29.4 µM
same,TGI,[18],31.6 µM
same,TGI,[19],30.8 µM
same,TGI,[20],36.2 µM
same,TGI,[21],28.9 µM
same,TGI,[22],30.8 µM
same,TGI,[23],36.3 µM
same,TGI,[24],31.2 µM
same,TGI,[26],25.1 µM
same,TGI,[27],27.3 µM
same,TGI,[28],21.9 µM
same,TGI,[29],71.2 µM
same,TGI,[30],31.7 µM
same,TGI,[57],29.1 µM
same,TGI,[31],26.2 µM
same,TGI,[32],30.8 µM
same,TGI,[58],29.4 µM
same,TGI,[33],28.4 µM
same,TGI,[34],29.4 µM
same,TGI,[35],18.8 µM
same,TGI,[36],29 µM
same,TGI,[37],23.6 µM
same,TGI,[38],50.8 µM
same,TGI,[39],32.3 µM
same,TGI,[41],29.9 µM
same,TGI,[42],30.9 µM
same,TGI,[43],29.7 µM
same,TGI,[44],32.2 µM
same,TGI,[45],33.2 µM
same,TGI,[46],32.3 µM
same,TGI,[59],29.5 µM
same,TGI,[47],31.5 µM
same,TGI,[48],29.9 µM
same,TGI,[49],22.9 µM
same,TGI,[50],32.1 µM
same,TGI,[51],26.9 µM
same,TGI,[52],30.6 µM
same,TGI,[53],28.2 µM
same,TGI,[54],24.3 µM
